# Legend:
# Pons [1] = experiment: Drug uptake in anesthetized cynomolgus monkey brain pons after 105 mins postinjection; type: ADME, organism-based, Macaca fascicularis; conditions: in vivo, 1.75 h
# Medulla [2] = experiment: Drug uptake in anesthetized cynomolgus monkey brain medulla after 175 mins postinjection; type: ADME, organism-based, Macaca fascicularis; conditions: in vivo
# Medulla [3] = experiment: Drug uptake in anesthetized cynomolgus monkey brain medulla after 85 mins postinjection; type: ADME, organism-based, Macaca fascicularis; conditions: in vivo
# Caudate [4] = experiment: Drug uptake in anesthetized cynomolgus monkey brain caudate after 155 mins postinjection; type: ADME, organism-based, Macaca fascicularis, Caudate nucleus; conditions: in vivo
# Caudate [5] = experiment: Drug uptake in anesthetized cynomolgus monkey brain caudate after 125 mins postinjection; type: ADME, organism-based, Macaca fascicularis, Caudate nucleus; conditions: in vivo
# [6] = Ratio of drug uptake in frontal lobe to cerebellum in anesthetized cynomolgus monkey after 205 mins postinjection; type: ADME, organism-based, Macaca fascicularis; conditions: in vivo
# Caudate [7] = experiment: Drug uptake in anesthetized cynomolgus monkey brain caudate after 6.5 mins postinjection; type: ADME, organism-based, Macaca fascicularis, Caudate nucleus; conditions: in vivo
# [8] = Ratio of drug uptake in medulla to cerebellum in anesthetized cynomolgus monkey after 195 mins postinjection; type: ADME, organism-based, Macaca fascicularis; conditions: in vivo, 3.25 h
# [9] = Drug uptake in anesthetized cynomolgus monkey brain cerebellum after 195 mins postinjection; type: ADME, organism-based, Macaca fascicularis; conditions: in vivo, 3.25 h
# [10] = Drug uptake in anesthetized cynomolgus monkey brain frontal lobe after 65 mins postinjection; type: ADME, organism-based, Macaca fascicularis; conditions: in vivo
# Putamen [11] = experiment: Drug uptake in anesthetized cynomolgus monkey brain putamen after 185 mins postinjection; type: ADME, organism-based, Macaca fascicularis; conditions: in vivo
# Caudate [12] = experiment: Drug uptake in anesthetized cynomolgus monkey brain caudate after 18.5 mins postinjection; type: ADME, organism-based, Macaca fascicularis, Caudate nucleus; conditions: in vivo
# [13] = Ratio of drug uptake in occipital lobe to cerebellum in anesthetized cynomolgus monkey after 205 mins postinjection; type: ADME, organism-based, Macaca fascicularis; conditions: in vivo
# Thalamus [14] = experiment: Drug uptake in anesthetized cynomolgus monkey brain thalamus after 105 mins postinjection; type: ADME, organism-based, Macaca fascicularis; parameters: unit not given here; conditions: in vivo, 1.75 h
# Medulla [15] = experiment: Drug uptake in anesthetized cynomolgus monkey brain medulla after 145 mins postinjection; type: ADME, organism-based, Macaca fascicularis; conditions: in vivo
# [16] = Ratio of drug uptake in midbrain to cerebellum in anesthetized cynomolgus monkey after 125 mins postinjection; type: ADME, organism-based, Macaca fascicularis; conditions: in vivo
# [17] = Drug uptake in anesthetized cynomolgus monkey brain cerebellum after 0.5 mins postinjection; type: ADME, organism-based, Macaca fascicularis; conditions: in vivo
# Putamen [18] = experiment: Drug uptake in anesthetized cynomolgus monkey brain putamen after 225 mins postinjection; type: ADME, organism-based, Macaca fascicularis; conditions: in vivo, 3.75 h
# [19] = Ratio of drug uptake in occipital lobe to cerebellum in anesthetized cynomolgus monkey after 4.5 mins postinjection; type: ADME, organism-based, Macaca fascicularis; conditions: in vivo, 0.075 h
# Putamen [20] = experiment: Drug uptake in anesthetized cynomolgus monkey brain putamen after 2.5 mins postinjection; type: ADME, organism-based, Macaca fascicularis; conditions: in vivo
# [21] = Ratio of drug uptake in caudate to cerebellum in anesthetized cynomolgus monkey after 225 mins postinjection; type: ADME, organism-based, Macaca fascicularis; conditions: in vivo, 3.75 h
# Thalamus [22] = experiment: Drug uptake in anesthetized cynomolgus monkey brain thalamus after 35 mins postinjection; type: ADME, organism-based, Macaca fascicularis; parameters: unit not given here; conditions: in vivo
# Thalamus [23] = experiment: Drug uptake in anesthetized cynomolgus monkey brain thalamus after 185 mins postinjection; type: ADME, organism-based, Macaca fascicularis; conditions: in vivo
# [24] = Ratio of drug uptake in caudate to cerebellum in anesthetized cynomolgus monkey after 135 mins postinjection; type: ADME, organism-based, Macaca fascicularis; conditions: in vivo, 2.25 h
# Midbrain [25] = experiment: Drug uptake in anesthetized cynomolgus monkey brain midbrain after 22.5 mins postinjection; type: ADME, organism-based, Macaca fascicularis; parameters: unit not given here; conditions: in vivo, 0.375 h
# Midbrain [26] = experiment: Drug uptake in anesthetized cynomolgus monkey brain midbrain after 185 mins postinjection; type: ADME, organism-based, Macaca fascicularis; conditions: in vivo
# Caudate [27] = experiment: Drug uptake in anesthetized cynomolgus monkey brain caudate after 135 mins postinjection; type: ADME, organism-based, Macaca fascicularis, Caudate nucleus; conditions: in vivo, 2.25 h
# Midbrain [28] = experiment: Drug uptake in anesthetized cynomolgus monkey brain midbrain after 15.5 mins postinjection; type: ADME, organism-based, Macaca fascicularis; parameters: unit not given here; conditions: in vivo
# Medulla [29] = experiment: Drug uptake in anesthetized cynomolgus monkey brain medulla after 27.5 mins postinjection; type: ADME, organism-based, Macaca fascicularis; conditions: in vivo
# Pons [30] = experiment: Drug uptake in anesthetized cynomolgus monkey brain pons after 135 mins postinjection; type: ADME, organism-based, Macaca fascicularis; conditions: in vivo, 2.25 h
# Pons [31] = experiment: Drug uptake in anesthetized cynomolgus monkey brain pons after 3.5 mins postinjection; type: ADME, organism-based, Macaca fascicularis; conditions: in vivo
# Pons [32] = experiment: Drug uptake in anesthetized cynomolgus monkey brain pons after 6.5 mins postinjection; type: ADME, organism-based, Macaca fascicularis; conditions: in vivo
# Medulla [33] = experiment: Drug uptake in anesthetized cynomolgus monkey brain medulla after 6.5 mins postinjection; type: ADME, organism-based, Macaca fascicularis; conditions: in vivo
# Putamen [34] = experiment: Drug uptake in anesthetized cynomolgus monkey brain putamen after 175 mins postinjection; type: ADME, organism-based, Macaca fascicularis; conditions: in vivo
# Caudate [35] = experiment: Drug uptake in anesthetized cynomolgus monkey brain caudate after 105 mins postinjection; type: ADME, organism-based, Macaca fascicularis, Caudate nucleus; conditions: in vivo, 1.75 h
# Thalamus [36] = experiment: Drug uptake in anesthetized cynomolgus monkey brain thalamus after 18.5 mins postinjection; type: ADME, organism-based, Macaca fascicularis; parameters: unit not given here; conditions: in vivo
# [37] = Ratio of drug uptake in thalamus to cerebellum in anesthetized cynomolgus monkey after 155 mins postinjection; type: ADME, organism-based, Macaca fascicularis; conditions: in vivo
# [38] = Ratio of drug uptake in occipital lobe to cerebellum in anesthetized cynomolgus monkey after 115 mins postinjection; type: ADME, organism-based, Macaca fascicularis; conditions: in vivo
# Midbrain [39] = experiment: Drug uptake in anesthetized cynomolgus monkey brain midbrain after 95 mins postinjection; type: ADME, organism-based, Macaca fascicularis; parameters: unit not given here; conditions: in vivo
# Putamen [40] = experiment: Drug uptake in anesthetized cynomolgus monkey brain putamen after 1.5 mins postinjection; type: ADME, organism-based, Macaca fascicularis; conditions: in vivo, 0.025 h
# [41] = Ratio of drug uptake in pons to cerebellum in anesthetized cynomolgus monkey after 18.5 mins postinjection; type: ADME, organism-based, Macaca fascicularis; conditions: in vivo
# Caudate [42] = experiment: Drug uptake in anesthetized cynomolgus monkey brain caudate after 95 mins postinjection; type: ADME, organism-based, Macaca fascicularis, Caudate nucleus; conditions: in vivo
# [43] = Drug uptake in anesthetized cynomolgus monkey brain cerebellum after 175 mins postinjection; type: ADME, organism-based, Macaca fascicularis; conditions: in vivo
# Pons [44] = experiment: Drug uptake in anesthetized cynomolgus monkey brain pons after 75 mins postinjection; type: ADME, organism-based, Macaca fascicularis; conditions: in vivo, 1.25 h
# Caudate [45] = experiment: Drug uptake in anesthetized cynomolgus monkey brain caudate after 1.5 mins postinjection; type: ADME, organism-based, Macaca fascicularis, Caudate nucleus; conditions: in vivo, 0.025 h
# Thalamus [46] = experiment: Drug uptake in anesthetized cynomolgus monkey brain thalamus after 22.5 mins postinjection; type: ADME, organism-based, Macaca fascicularis; parameters: unit not given here; conditions: in vivo, 0.375 h
# Pons [47] = experiment: Drug uptake in anesthetized cynomolgus monkey brain pons after 225 mins postinjection; type: ADME, organism-based, Macaca fascicularis; conditions: in vivo, 3.75 h
# Putamen [48] = experiment: Drug uptake in anesthetized cynomolgus monkey brain putamen after 145 mins postinjection; type: ADME, organism-based, Macaca fascicularis; conditions: in vivo
# [49] = Ratio of drug uptake in putamen to cerebellum in anesthetized cynomolgus monkey after 235 mins postinjection; type: ADME, organism-based, Macaca fascicularis; conditions: in vivo
# Midbrain [50] = experiment: Drug uptake in anesthetized cynomolgus monkey brain midbrain after 205 mins postinjection; type: ADME, organism-based, Macaca fascicularis; conditions: in vivo
# Midbrain [51] = experiment: Drug uptake in anesthetized cynomolgus monkey brain midbrain after 0.5 mins postinjection; type: ADME, organism-based, Macaca fascicularis; parameters: unit not given here; conditions: in vivo
# Midbrain [52] = experiment: Drug uptake in anesthetized cynomolgus monkey brain midbrain after 3.5 mins postinjection; type: ADME, organism-based, Macaca fascicularis; parameters: unit not given here; conditions: in vivo
# Pons [53] = experiment: Drug uptake in anesthetized cynomolgus monkey brain pons after 125 mins postinjection; type: ADME, organism-based, Macaca fascicularis; conditions: in vivo
# Pons [54] = experiment: Drug uptake in anesthetized cynomolgus monkey brain pons after 235 mins postinjection; type: ADME, organism-based, Macaca fascicularis; conditions: in vivo
structure (smiles),measurement,setting,value
O=C(OCC[18F])C1C2CCC(CC1c1ccc(/C=C\I)cc1)N2 (centres undefined),Drug uptake,Pons [1],3.4
same,Drug uptake,Medulla [2],3.52
same,Drug uptake,Medulla [3],3.91
same,Drug uptake,Caudate [4],3.03
same,Drug uptake,Caudate [5],3.09
same,Ratio,[6],1.4
same,Drug uptake,Caudate [7],1.13
same,Ratio,[8],2.6
same,Drug uptake,[9],1.29
same,Drug uptake,[10],2.03
same,Drug uptake,Putamen [11],4.01
same,Drug uptake,Caudate [12],1.84
same,Ratio,[13],1.4
same,Drug uptake,Thalamus [14],4.11
same,Drug uptake,Medulla [15],3.61
same,Ratio,[16],2.7
same,Drug uptake,[17],0
same,Drug uptake,Putamen [18],3.79
same,Ratio,[19],0.8
same,Drug uptake,Putamen [20],0.45
same,Ratio,[21],2.5
same,Drug uptake,Thalamus [22],3.31
same,Drug uptake,Thalamus [23],3.8
same,Ratio,[24],1.8
same,Drug uptake,Midbrain [25],3.04
same,Drug uptake,Midbrain [26],4.64
same,Drug uptake,Caudate [27],3.1
same,Drug uptake,Midbrain [28],2.58
same,Drug uptake,Medulla [29],3.35
same,Drug uptake,Pons [30],3.6
same,Drug uptake,Pons [31],0.67
same,Drug uptake,Pons [32],1.36
same,Drug uptake,Medulla [33],2.02
same,Drug uptake,Putamen [34],3.1
same,Drug uptake,Caudate [35],3.13
same,Drug uptake,Thalamus [36],2.7
same,Ratio,[37],2.7
same,Ratio,[38],1.3
same,Drug uptake,Midbrain [39],4.6
same,Drug uptake,Putamen [40],0.11
same,Ratio,[41],0.9
same,Drug uptake,Caudate [42],3.05
same,Drug uptake,[43],1.3
same,Drug uptake,Pons [44],3.39
same,Drug uptake,Caudate [45],0.07
same,Drug uptake,Thalamus [46],2.9
same,Drug uptake,Pons [47],3.34
same,Drug uptake,Putamen [48],4.31
same,Ratio,[49],3.8
same,Drug uptake,Midbrain [50],4.57
same,Drug uptake,Midbrain [51],0
same,Drug uptake,Midbrain [52],0.84
same,Drug uptake,Pons [53],3.56
same,Drug uptake,Pons [54],3.06

# Source: ChEMBL document CHEMBL1151757, “Synthesis, radiosynthesis, and biological evaluation of fluorine-18-labeled 2beta-carbo(fluoroalkoxy)-3beta-(3'-((Z)-2-haloethenyl)phenyl)nortropanes: candidate radioligands for in vivo imaging of the serotonin transporter with positron emission tomography” (J Med Chem, 2008)
